Consider 7 molecules from US5698516A, “Biologically active vasopressin analogues” (Ferring B.V., priority 1993, dated 1997).

Like-named read-outs stand apart in the source and are kept apart here. Numbered stars: 1 amine (or outer) side, 2 acyl side, 3 side chain; on linkers, the order of the positions; unused ones are H or OH. Bridge positions count the residues as written; N and C are the ends. Square brackets hold non-standard residues; d marks the D form. Peptide text beside a SMILES is read from it. Hyp = O=C(O)[C@@H]1C[C@@H](O)CN1; 2Thi = N[C@@H](Cc1cccs1)C(=O)O; d2Thi = N[C@H](Cc1cccs1)C(=O)O; Iva = CC[C@](C)(N)C(=O)O; X1 = O=C(CCC[*:2])[*:1]

A short description of data set [1]: Intranasal absorption of peptides (FAD)in, intranasal vs intravenous antidiuretic effect. The conditions noted are these: rat, 30 μl in nasal cavity; antidiuretic effect AUC vs intravenous.
Procedure: (§1) c) Intranasal absorption of peptides (FAD)in
(§2) Absorption of peptides administered in a volume of 30 μl in the nasal cavity through a PE20 cannula attached to a Hamilton syringe (introduced 10 mm without surgery), was determined by comparing the antidiuretic effect (area under curve) after intranasal administration with the antidiuretic effect after intravenous administration.
Data set [2] is described as follows: Gastrointestinal absorption of peptides (FAD)V, intestinal vs intravenous antidiuretic effect. The conditions noted are these: rat, intestinal administration via tube 10 cm distal of pylorus; antidiuretic effect AUC vs intravenous.
Procedure: (§3) b) Gastrointestinal absorption of peptides [(FAD)V ]
(§4) Absorption of peptides administered in the intestine through a surgically introduced plastic tube (10 cm distal of pylorus) was determined by comparing the antidiuretic effect (area under curve) after intestinal administration with the antidiuretic effect after intravenous adminstration.
The subject of data set [3] is rat. Description: Antidiuretic activity (ADiv), rat model, urine conductivity after intravenous challenge. The class given is in vivo. The conditions noted are these: conductivity of urine. How it is done: a) Antidiuretic activity (ADiv)
The antidiuretic activity of the peptides was determined in the well established rat model which is based on continuous measurement of the conductivity of the urine produced by the rat after an intravenous challenge with peptide (J. Medicinal Chem. (1978), 21, 352-356).

For data set [4] the following is noted: rat, in vivo.
Procedure: as §3, §4
The conditions of data set [5]: rat, in vivo. The source holds these as a separate data set.
Procedure: as §1, §2
For data set [6] the following is noted: in vivo; cited from earlier work.

Turning to `CSCC[C@@H]1NC(=O)[C@@H](Cc2cccs2)NC(=O)CCCSC[C@@H](C(=O)N2C[C@H](O)C[C@H]2C(=O)N[C@H](CCCNC(=N)N)C(=O)NCC(N)=O)NC(=O)[C@H](CC(N)=O)NC(=O)[C@H](C(C)C)NC1=O` [Ex. 6] ([d2Thi]MVNC[Hyp][dR]G-NH2; linker N-5 via X1), in data set [1], the “(FAD)in (intranasal absorption)” value is given as 22%. The “(FAD)V (gastrointestinal absorption)” value in data set [2] is 1.6%.
Turning to `CC(C)[C@@H]1NC(=O)[C@H](Cc2cccs2)NC(=O)[C@@H](Cc2ccccc2)NC(=O)CCCSC[C@@H](C(=O)N2C[C@H](O)C[C@H]2C(=O)N[C@H](CCCNC(=N)N)C(=O)NCC(N)=O)NC(=O)[C@H](CC(N)=O)NC1=O` [Ex. 2] ([dF][2Thi]VNC[Hyp][dR]G-NH2; linker N-5 via X1), in data set [1], the “(FAD)in (intranasal absorption)” value worked out at 20%. For the same molecule, in data set [2], the “(FAD)V (gastrointestinal absorption)” value is reported as 1.2%.
Regarding `CC(C)[C@@H]1NC(=O)[C@H](Cc2ccccc2)NC(=O)[C@@H](Cc2ccc(O)cc2)NC(=O)CCCSC[C@@H](C(=O)N2CCC[C@H]2C(=O)N[C@H](CCCNC(=N)N)C(=O)NCC(N)=O)NC(=O)[C@H](CC(N)=O)NC1=O` [Ex. 3, reference compound] ([dY]FVNCP[dR]G-NH2; linker N-5 via X1), in data set [1], the “(FAD)in (intranasal absorption)” value is recorded as 5%. Also, in data set [2], the “(FAD)V (gastrointestinal absorption)” value amounted to 0.4%.
The matching figures for `CC[C@]1(C)NC(=O)[C@H](Cc2cccs2)NC(=O)[C@@H](Cc2cccs2)NC(=O)CCCSC[C@@H](C(=O)N2C[C@H](O)C[C@H]2C(=O)N[C@H](CCCNC(=N)N)C(=O)NCC(N)=O)NC(=O)[C@H](CC(N)=O)NC1=O` [Ex. 4] ([d2Thi][2Thi][Iva]NC[Hyp][dR]G-NH2; linker N-5 via X1): 22% and 2.5%.
Consider `CC[C@]1(C)NC(=O)[C@H](Cc2cccs2)NC(=O)[C@@H](Cc2ccccc2)NC(=O)CCCSC[C@@H](C(=O)N2C[C@H](O)C[C@H]2C(=O)N[C@H](CCCNC(=N)N)C(=O)NCC(N)=O)NC(=O)[C@H](CC(N)=O)NC1=O` [Ex. 1] ([dF][2Thi][Iva]NC[Hyp][dR]G-NH2; linker N-5 via X1), for which the “(FAD)in (intranasal absorption)” value in data set [1] was 42%. Moreover, the “(FAD)V (gastrointestinal absorption)” value in data set [2] is on record as 1.3%.
For `CC[C@]1(C)NC(=O)[C@H](Cc2cccs2)NC(=O)[C@@H](Cc2ccc(O)cc2)NC(=O)CCCSC[C@@H](C(=O)N2C[C@H](O)C[C@H]2C(=O)N[C@H](CCCNC(=N)N)C(=O)NCC(N)=O)NC(=O)[C@H](CC(N)=O)NC1=O` [Ex. 5] ([dY][2Thi][Iva]NC[Hyp][dR]G-NH2; linker N-5 via X1), in that order: 17% and 1.4%.
Take `NC(=O)CC[C@@H]1NC(=O)[C@H](Cc2ccccc2)NC(=O)[C@H](Cc2ccc(O)cc2)NC(=O)CCSSC[C@@H](C(=O)N2CCC[C@H]2C(=O)N[C@H](CCCN=C(N)N)C(=O)NCC(N)=O)NC(=O)[C@H](CC(N)=O)NC1=O` [DDAVP, 1-desamino-8-D-arginine vasopressin]: the “ADiv (antidiuretic activity)” value in data set [3] is given as 1100 IU/μmol. The “(FAD)V (gastrointestinal absorption)” value in data set [4] amounted to 0.09%. Besides, the “(FAD)in (intranasal absorption)” value in data set [5] was determined as 8%. Also, in data set [6], the “decrease of bioavailability by intranasal route” value is given as “about 10 times”.
